This is an account of results in ChEMBL document CHEMBL5365421, “Design, synthesis, antitumor activity, and molecular dynamics simulations of novel sphingosine kinase 2 inhibitors” (Bioorg Med Chem, 2023).

The term IC50 denotes the concentration needed to halve the response being measured. The term inhibition denotes the share of the control response that was lost under treatment. For orientation: Ki means a measure of affinity in units of concentration, obtained from inhibition or displacement.

One experiment deals with Sphingosine kinase 1 (Homo sapiens, UniProt Q9NYA1). Briefly: Inhibition of SphK1 (unknown origin) using D-Sph as substrate incubated for 40 mins by ADP-Glo Plus luminescence kinase assay.
Sequence of Sphingosine kinase 1 (Q9NYA1 whole entry): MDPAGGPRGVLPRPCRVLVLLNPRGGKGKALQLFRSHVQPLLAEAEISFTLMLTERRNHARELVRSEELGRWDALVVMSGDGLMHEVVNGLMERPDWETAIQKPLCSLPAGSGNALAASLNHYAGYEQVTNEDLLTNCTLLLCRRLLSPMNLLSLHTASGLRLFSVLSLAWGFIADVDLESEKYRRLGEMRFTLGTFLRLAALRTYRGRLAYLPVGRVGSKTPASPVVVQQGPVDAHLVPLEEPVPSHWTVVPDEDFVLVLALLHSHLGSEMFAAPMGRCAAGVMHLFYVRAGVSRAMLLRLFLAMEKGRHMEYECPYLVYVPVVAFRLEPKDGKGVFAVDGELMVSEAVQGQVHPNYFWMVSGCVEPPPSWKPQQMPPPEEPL
Experiment [1] concerns the target T1, Sphingosine kinase 2 (Homo sapiens, UniProt Q9NRA0).
T1 sequence (Q9NRA0 whole entry): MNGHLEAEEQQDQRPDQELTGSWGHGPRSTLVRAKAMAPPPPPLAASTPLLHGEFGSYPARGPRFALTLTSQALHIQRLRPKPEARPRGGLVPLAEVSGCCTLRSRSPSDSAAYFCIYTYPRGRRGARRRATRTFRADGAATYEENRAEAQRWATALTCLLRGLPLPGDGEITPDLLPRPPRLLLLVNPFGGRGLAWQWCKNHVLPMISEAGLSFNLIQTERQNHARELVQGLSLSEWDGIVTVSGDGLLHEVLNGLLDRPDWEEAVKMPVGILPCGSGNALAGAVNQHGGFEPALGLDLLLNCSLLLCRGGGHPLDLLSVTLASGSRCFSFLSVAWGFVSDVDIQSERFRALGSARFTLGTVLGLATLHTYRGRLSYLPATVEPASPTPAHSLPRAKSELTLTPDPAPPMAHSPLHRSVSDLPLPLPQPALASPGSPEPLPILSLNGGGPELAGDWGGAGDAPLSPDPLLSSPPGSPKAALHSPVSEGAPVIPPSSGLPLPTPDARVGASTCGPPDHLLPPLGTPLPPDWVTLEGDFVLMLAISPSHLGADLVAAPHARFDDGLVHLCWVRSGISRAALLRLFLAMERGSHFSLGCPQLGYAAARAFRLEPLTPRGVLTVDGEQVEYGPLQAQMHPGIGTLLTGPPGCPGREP
The experiment is described as follows: Inhibition of SphK2 (unknown origin) using NBD-Sph as substrate by fluorescent plate reader analysis.

For another experiment, the system named is U-937. Briefly: Antiproliferative activity against human U-937 cells assessed as cell growth inhibition measured after 48 hrs by MTT assay. Format: functional, cell-based. Particulars: U-937, 48 h. For orientation: Tetrazolium dyes change colour on reduction, which living cells bring about.
The test system of experiment [2] is MCF7. Briefly: Antiproliferative activity against human MCF7 cells assessed as cell growth inhibition measured after 48 hrs by MTT assay. It is filed as functional, cell-based. The conditions noted are these: MCF7, 48 h.
For another experiment, the system named is MGC-803. Briefly: Antiproliferative activity against human MGC-803 cells assessed as cell growth inhibition measured after 48 hrs by MTT assay. Format: functional, cell-based. Particulars: MGC-803, 48 h.
Experiment [3] deals with T2, Sphingosine kinase 2 (Homo sapiens) (UniProt Q9NRA0).
T2 sequence (whole entry): T1 sequence (Q9NRA0 whole entry)
Briefly: Inhibition of SphK2 (unknown origin) using NBD-Sph as substrate at 10 uM by fluorescent plate reader analysis relative to control.

Experiment [4] concerns the target T1, Sphingosine kinase 2. Briefly: Inhibition of recombinant SphK2 (unknown origin) using sphingosine as substrate assessed as inhibition constant by Lineweaver-burk plot analysis.
The test system of experiment [5] is MCF7. Briefly: Inhibition of cell migration in human MCF7 cells assessed as reduction in scratch healing rate measured after 24 to 48 hrs by microscopic analysis. Format: functional, cell-based. Particulars: dose 20-100 µM, time lower 24.0 hrs, time upper […].

For `OCC1CCCN1Cc1ccc(COc2cccc(OCc3ccccc3)c2)cc1` (single isomer, unassigned), the IC50 is 0.446 µM at Sphingosine kinase 1; 0.0115 µM on Sphingosine kinase 2 [1]; above 80.2 µM with U-937; above 100 µM in the experiment with MCF7 [2]; 15.7 µM in the experiment on MGC-803.

For `O=C(c1ccc(OCc2noc(-c3ccc(C(F)(F)F)cc3)n2)cc1)N1CCC[C@H]1CO`, the concentration for half-maximal inhibition (IC50) at Sphingosine kinase 2 [1] amounted to 2.46 µM; with U-937 it was 29.4 µM; with MCF7 [2], 51.9 µM; in the experiment with MGC-803, 43 µM.

Take `NC(=O)[C@@H]1CCCN1C(=O)c1ccc(OCc2noc(-c3ccc(C(F)(F)F)cc3)n2)cc1`: the IC50 was above 10 µM against Sphingosine kinase 2 [1], 25.6 µM in the experiment with U-937, 12.8 µM in the experiment on MCF7 [2] and 22.9 µM with MGC-803.

With `NC(=O)CNCc1ccc(COc2cccc(OCc3ccccc3)c2)cc1`, the half-inhibitory concentration (IC50) at Sphingosine kinase 1 is 30.4 µM; on Sphingosine kinase 2 [1], 0.0462 µM; in the experiment on U-937 it was above 82.3 µM; in the experiment with MCF7 [2], 42.7 µM; in the experiment on MGC-803 it was 55.3 µM.

For `NC(=O)[C@@H]1CCCN1C(=O)c1ccc(COc2cccc(OCc3ccccc3)c2)cc1`, the IC50 at Sphingosine kinase 1 is 66.2 µM; against Sphingosine kinase 2 [1] it was above 10 µM; in the experiment on U-937, above 100 µM; with MCF7 [2], above 100 µM; in the experiment on MGC-803, 38.6 µM.

With `O=C(c1ccc(OCc2noc(-c3ccc(Cl)cc3)n2)cc1)N1CCC[C@H]1CO`, the 50% inhibitory concentration (IC50) at Sphingosine kinase 1 is 8.96 µM; against Sphingosine kinase 2 [1], above 10 µM; in the experiment on U-937, 17.3 µM; with MCF7 [2] it was 8.61 µM; in the experiment on MGC-803, 22.9 µM. In experiment [3], this compound registered an inhibition below 50%.

Consider `NC(=O)[C@H]1CCCN1C(=O)c1ccc(COc2cccc(OCc3ccccc3)c2)cc1`, for which the half-maximal inhibitory concentration (IC50) is 0.96 µM at Sphingosine kinase 2 [1], 45.6 µM in the experiment on U-937, above 100 µM in the experiment on MCF7 [2] and above 81.5 µM in the experiment on MGC-803.

As for `O=C(NCCO)c1ccc(OCc2noc(-c3ccc(Cl)cc3)n2)cc1`, the 50% inhibitory concentration (IC50) was above 10 µM at Sphingosine kinase 2 [1], 20.1 µM in the experiment on U-937, 55.2 µM in the experiment with MCF7 [2] and 37 µM in the experiment with MGC-803. The inhibition in experiment [3] was below 50%.

Regarding `CCCCOc1ccc(CC/C=C2\SC(=O)N(CCN)C2=O)cc1`, at Sphingosine kinase 2 [4], the Ki was 6.5 µM.

In the case of `NCCNC(=O)c1ccc(OCc2noc(-c3ccc(C(F)(F)F)cc3)n2)cc1`, the 50% inhibitory concentration (IC50) at Sphingosine kinase 2 [1] is above 10 µM; with U-937, 32.9 µM; in the experiment on MCF7 [2], 39.6 µM; in the experiment on MGC-803 it was 40.8 µM.

Turning to `NC(=O)CNC(=O)c1ccc(COc2cccc(OCc3ccccc3)c2)cc1`, the half-maximal inhibitory concentration (IC50) on Sphingosine kinase 2 [1] is 0.0115 µM; in the experiment with U-937 it was 32.7 µM; in the experiment on MCF7 [2] it was 20.3 µM; with MGC-803, 33.8 µM.

For `O=C(c1ccc(OCc2noc(-c3ccc(Cl)cc3)n2)cc1)N1CCC[C@@H]1CO`, the concentration for half-maximal inhibition (IC50) at Sphingosine kinase 1 was 7.76 µM; against Sphingosine kinase 2 [1], above 10 µM; in the experiment with U-937, 2.95 µM; in the experiment on MCF7 [2], 45.3 µM; with MGC-803, 40.3 µM. The same compound registered an inhibition in experiment [3] below 50%.

In the case of `O=C(NCCO)c1ccc(COc2cccc(OCc3ccccc3)c2)cc1`, the IC50 at Sphingosine kinase 1 is 35.6 µM; at Sphingosine kinase 2 [1], 1.25 µM; in the experiment with U-937, 34.7 µM; in the experiment on MCF7 [2], 34.7 µM; with MGC-803 it was 37.7 µM.

For `NC(=O)CNC(=O)c1ccc(OCc2noc(-c3ccc(C(F)(F)F)cc3)n2)cc1`, the IC50 was above 10 µM at Sphingosine kinase 2 [1], 8.44 µM in the experiment with U-937, 39.7 µM in the experiment on MCF7 [2] and 10.9 µM in the experiment with MGC-803.

Take `O=C(c1ccc(OCc2noc(-c3ccc(C(F)(F)F)cc3)n2)cc1)N1CCC[C@@H]1CO`: the IC50 worked out at 17.7 µM on Sphingosine kinase 1; 0.00343 µM on Sphingosine kinase 2 [1]; 51.1 µM in the experiment on U-937; 21.1 µM in the experiment on MCF7 [2]; 35.9 µM with MGC-803. Also, in the experiment with MCF7 [5], the inhibition entry was “Dose-Dependent Effect”.

For the compound `OC[C@@H]1CCCN1Cc1ccc(COc2cccc(OCc3ccccc3)c2)cc1`, the 50% inhibitory concentration (IC50) is 0.917 µM at Sphingosine kinase 1; 0.00191 µM against Sphingosine kinase 2 [1]; 37.6 µM in the experiment with U-937; above 100 µM in the experiment on MCF7 [2]; 32.2 µM in the experiment with MGC-803.

Regarding `NCCNC(=O)c1ccc(OCc2noc(-c3ccc(Cl)cc3)n2)cc1`, the 50% inhibitory concentration (IC50) is 1.47 µM at Sphingosine kinase 1; above 10 µM at Sphingosine kinase 2 [1]; 31.4 µM in the experiment with U-937; 54 µM in the experiment with MCF7 [2]; 42 µM in the experiment on MGC-803. In addition, the inhibition in experiment [3] was below 50%.

For `NC(=O)[C@H]1CCCN1Cc1ccc(COc2cccc(OCc3ccccc3)c2)cc1`, the IC50 at Sphingosine kinase 1 is 0.924 µM; on Sphingosine kinase 2 [1], above 10 µM; in the experiment with U-937 it was 41.5 µM; in the experiment with MCF7 [2], 18.3 µM; in the experiment on MGC-803, 65.2 µM.

On to `O=C(c1ccc(COc2cccc(OCc3ccccc3)c2)cc1)N1CCC[C@H]1CO`, for which the concentration for half-maximal inhibition (IC50) was above 10 µM against Sphingosine kinase 2 [1], 29.9 µM with U-937, above 100 µM in the experiment with MCF7 [2] and above 79.8 µM in the experiment on MGC-803. Also, in experiment [3], the inhibition was below 50%.

Take `O=C(NCCO)c1ccc(OCc2noc(-c3ccc(C(F)(F)F)cc3)n2)cc1`: the IC50 came to 0.0358 µM on Sphingosine kinase 2 [1], 68.9 µM in the experiment on U-937, 58 µM in the experiment on MCF7 [2] and 26.1 µM with MGC-803.

For the compound `NCCNC(=O)c1ccc(COc2cccc(OCc3ccccc3)c2)cc1`, the half-maximal inhibitory concentration (IC50) was determined as 0.0416 µM against Sphingosine kinase 2 [1], 51.4 µM in the experiment on U-937, 53.5 µM in the experiment on MCF7 [2] and 25.1 µM with MGC-803.

With `NC(=O)[C@@H]1CCCN1C(=O)c1ccc(OCc2noc(-c3ccc(Cl)cc3)n2)cc1`, the IC50 is above 10 µM on Sphingosine kinase 2 [1], 31.2 µM in the experiment on U-937, above 100 µM in the experiment on MCF7 [2] and 40.6 µM in the experiment with MGC-803. The compound further gave an inhibition in experiment [3] below 50%.

With `O=C(c1ccc(COc2cccc(OCc3ccccc3)c2)cc1)N1CCC[C@@H]1CO`, the IC50 at Sphingosine kinase 2 [1] was determined as 1.23 µM; in the experiment with U-937 it was 69.5 µM; in the experiment with MCF7 [2], 30.5 µM; in the experiment on MGC-803, 61.8 µM.

As for `NC(=O)CNC(=O)c1ccc(OCc2noc(-c3ccc(Cl)cc3)n2)cc1`, the IC50 was above 10 µM on Sphingosine kinase 2 [1], 10 µM with U-937, 55.4 µM in the experiment on MCF7 [2] and 29.8 µM with MGC-803. This compound returned an inhibition in experiment [3] below 50%.

Consider `CCCCCOc1ccc2cc(-c3noc([C@@H]4[C@@H](O)CCN4C(=N)N)n3)ccc2c1`, for which, at Sphingosine kinase 2 [1], it took 4 µM to reach half-maximal inhibition (IC50).

As for `NC(=O)[C@H]1CCCN1C(=O)c1ccc(OCc2noc(-c3ccc(Cl)cc3)n2)cc1`, the IC50 on Sphingosine kinase 2 [1] is above 10 µM; in the experiment on U-937, 47.8 µM; with MCF7 [2] it was 7.63 µM; in the experiment on MGC-803, 20.2 µM. Further, in experiment [3], the inhibition was below 50%.

As to `NC(=O)[C@@H]1CCCN1Cc1ccc(COc2cccc(OCc3ccccc3)c2)cc1`, the IC50 at Sphingosine kinase 2 [1] was above 10 µM; in the experiment with U-937 it was 43.3 µM; in the experiment on MCF7 [2], 21.5 µM; with MGC-803, 63.6 µM.

With `NC(=O)[C@H]1CCCN1C(=O)c1ccc(OCc2noc(-c3ccc(C(F)(F)F)cc3)n2)cc1`, the IC50 on Sphingosine kinase 1 was determined as 21.9 µM; against Sphingosine kinase 2 [1], 0.0024 µM; with U-937, 25.6 µM; in the experiment with MCF7 [2], 24.4 µM; in the experiment with MGC-803 it was 19.2 µM. Moreover, the inhibition entry in the experiment on MCF7 [5] is “Dose-Dependent Effect”.
